The target of the assay is T1, glucocerebrosidase (Gcase) (Homo sapiens, UniProt P04062).
T1 construct: micellar solution containing 10 nM GCase and 100 nM saposin C
T1 sequence (P04062 40-536): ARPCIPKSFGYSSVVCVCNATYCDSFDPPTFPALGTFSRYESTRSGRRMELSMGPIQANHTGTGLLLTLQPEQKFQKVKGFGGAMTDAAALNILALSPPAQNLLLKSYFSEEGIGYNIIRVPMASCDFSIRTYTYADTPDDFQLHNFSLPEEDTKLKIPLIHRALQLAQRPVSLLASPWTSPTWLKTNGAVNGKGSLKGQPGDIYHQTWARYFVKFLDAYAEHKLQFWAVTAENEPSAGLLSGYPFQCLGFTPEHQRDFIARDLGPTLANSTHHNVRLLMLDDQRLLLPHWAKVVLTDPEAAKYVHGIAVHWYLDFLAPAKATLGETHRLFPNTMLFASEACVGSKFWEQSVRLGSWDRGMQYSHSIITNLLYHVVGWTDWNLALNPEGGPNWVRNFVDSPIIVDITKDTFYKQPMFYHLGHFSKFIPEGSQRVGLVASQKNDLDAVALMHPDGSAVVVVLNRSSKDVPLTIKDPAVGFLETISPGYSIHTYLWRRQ
As to the kind of experiment: Glucocerebrosidase (Gcase) activation assay with 4-methylumbelliferyl-beta-D-glucopyranoside substrate, saposin C and phosphatidylserine/triton micelles, fluorescence readout. It is filed as biochemical. The method, boiled down:
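Test compounds are first screened at 1.0 and 0.1 μM final, then titrated in 8 points (3-fold from 5 μM) against human GCase with saposin C in phosphatidylserine/triton X-100 micelles at pH 4.7. Reactions run 15 min at room temperature, with fluorescence read at 365/440 nm.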

Here are results for 33 molecules from patent US10934298B2, “Substituted pyrazolo[1,5-a]pyrimidines for the treatment of medical disorders” (BIAL—BioTech Investments, Inc., priority 2016, dated 2021).

`Cc1cc(-c2sccc2C#N)nc2c(C(=O)N[C@@H](C)C3CC3)cnn12` [III-301]: the “Percent Gcase Activation, 0.1 μM Test Compound” value is given as “*** (greater than 20% Gcase activation)” and the “Percent Gcase Activation, 1 μM Test Compound” value is listed as “+++ (Gcase activation greater than 60%)”.

`Cc1cc(-c2sccc2C#N)nc2c(C(=O)N[C@H](C)C3CC3)cnn12` [III-302]: the “Percent Gcase Activation, 0.1 μM Test Compound” value is on record as “*** (greater than 20% Gcase activation)” and the “Percent Gcase Activation, 1 μM Test Compound” value is on record as “+++ (Gcase activation greater than 60%)”.

For `Cc1cc(-c2ccc3c(c2)ncn3C)nc2c(C(=O)NC(C3CC3)C(F)(F)F)cnn12` (stereo not drawn) [III-303], the “Percent Gcase Activation, 0.1 μM Test Compound” value was “** (Gcase activation in the range of 10% up to 20%)” and the “Percent Gcase Activation, 1 μM Test Compound” value was “+ (less than 30% Gcase activation)”.

For `Cc1cc(-c2ccc3ncn(C)c3c2)nc2c(C(=O)NC(C3CC3)C(F)(F)F)cnn12` (stereo not drawn) [III-304], the “Percent Gcase Activation, 0.1 μM Test Compound” value is “** (Gcase activation in the range of 10% up to 20%)” and the “Percent Gcase Activation, 1 μM Test Compound” value is on record as “+++ (Gcase activation greater than 60%)”.

With `Cc1cc(-c2ccc3ncn(C)c3c2)nc2c(C(=O)N[C@H](C3CC3)C(F)(F)F)cnn12` [III-305], the “Percent Gcase Activation, 0.1 μM Test Compound” value is listed as “*** (greater than 20% Gcase activation)” and the “Percent Gcase Activation, 1 μM Test Compound” value is recorded as “+++ (Gcase activation greater than 60%)”.

Take `Cc1cc(-c2ccc3ncn(C)c3c2)nc2c(C(=O)N[C@@H](C3CC3)C(F)(F)F)cnn12` [III-306]: the “Percent Gcase Activation, 0.1 μM Test Compound” value is “*** (greater than 20% Gcase activation)” and the “Percent Gcase Activation, 1 μM Test Compound” value is recorded as “+++ (Gcase activation greater than 60%)”.

On to `Cc1cc(-c2ccc3nc[nH]c3c2)nc2c(C(=O)NC(C3CC3)C(F)(F)F)cnn12` (stereo not drawn) [III-307], for which the “Percent Gcase Activation, 0.1 μM Test Compound” value is given as “*** (greater than 20% Gcase activation)” and the “Percent Gcase Activation, 1 μM Test Compound” value is given as “++ (Gcase activation in the range of 30% up to 60%)”.

Take `Cc1cc(-c2cccc3nc[nH]c23)nc2c(C(=O)NC(C3CC3)C(F)(F)F)cnn12` (stereo not drawn) [III-308]: the “Percent Gcase Activation, 0.1 μM Test Compound” value is on record as “* (less than 10% Gcase activation)” and the “Percent Gcase Activation, 1 μM Test Compound” value is listed as “+++ (Gcase activation greater than 60%)”.

On to `Cc1cc(-c2cccc3ncn(C)c23)nc2c(C(=O)NC(C3CC3)C(F)(F)F)cnn12` (stereo not drawn) [III-309], for which the “Percent Gcase Activation, 0.1 μM Test Compound” value is “* (less than 10% Gcase activation)” and the “Percent Gcase Activation, 1 μM Test Compound” value is “+ (less than 30% Gcase activation)”.

Regarding `Cc1cc(-c2cccc3c2ncn3C)nc2c(C(=O)NC(C3CC3)C(F)(F)F)cnn12` (stereo not drawn) [III-310], the “Percent Gcase Activation, 0.1 μM Test Compound” value is reported as “** (Gcase activation in the range of 10% up to 20%)” and the “Percent Gcase Activation, 1 μM Test Compound” value was “+++ (Gcase activation greater than 60%)”.

Consider `Cc1cc(-c2nc3ccccc3[nH]2)nc2c(C(=O)NC(C3CC3)C(F)(F)F)cnn12` (stereo not drawn) [III-311], for which the “Percent Gcase Activation, 0.1 μM Test Compound” value is “* (less than 10% Gcase activation)” and the “Percent Gcase Activation, 1 μM Test Compound” value was “++ (Gcase activation in the range of 30% up to 60%)”.

As for `Cc1cc(-c2nc3ccccc3n2C)nc2c(C(=O)NC(C3CC3)C(F)(F)F)cnn12` (stereo not drawn) [III-312], the “Percent Gcase Activation, 0.1 μM Test Compound” value is “** (Gcase activation in the range of 10% up to 20%)” and the “Percent Gcase Activation, 1 μM Test Compound” value was “++ (Gcase activation in the range of 30% up to 60%)”.

`Cc1cc(N2CC(C(C)C)OC2=O)nc2c(C(=O)NC(c3ccccc3)C(F)(F)F)cnn12` (stereo not drawn) [III-313]: the “Percent Gcase Activation, 0.1 μM Test Compound” value is given as “*** (greater than 20% Gcase activation)” and the “Percent Gcase Activation, 1 μM Test Compound” value is “+++ (Gcase activation greater than 60%)”.

Consider `Cc1cc(N2C[C@H](c3ccccc3)OC2=O)nc2c(C(=O)NC(C3CC3)C(F)(F)F)cnn12` (stereo partly drawn) [III-314], for which the “Percent Gcase Activation, 0.1 μM Test Compound” value is on record as “*** (greater than 20% Gcase activation)” and the “Percent Gcase Activation, 1 μM Test Compound” value is on record as “+++ (Gcase activation greater than 60%)”.

For the molecule `Cc1cc(N2C[C@@H](c3ccccc3)OC2=O)nc2c(C(=O)NC(C3CC3)C(F)(F)F)cnn12` (stereo partly drawn) [III-315], the “Percent Gcase Activation, 0.1 μM Test Compound” value is “*** (greater than 20% Gcase activation)” and the “Percent Gcase Activation, 1 μM Test Compound” value is “+++ (Gcase activation greater than 60%)”.

For the molecule `Cc1cc(N2CC(C(C)C)OC2=O)nc2c(C(=O)NC(C3CC3)C(F)(F)F)cnn12` (stereo not drawn) [III-316], the “Percent Gcase Activation, 0.1 μM Test Compound” value is “** (Gcase activation in the range of 10% up to 20%)” and the “Percent Gcase Activation, 1 μM Test Compound” value is on record as “+++ (Gcase activation greater than 60%)”.

For `Cc1cc(N2CC(C(C)C)OC2=O)nc2c(C(=O)N[C@H](C3CC3)C(F)(F)F)cnn12` (stereo partly drawn) [III-317], the “Percent Gcase Activation, 0.1 μM Test Compound” value is given as “** (Gcase activation in the range of 10% up to 20%)” and the “Percent Gcase Activation, 1 μM Test Compound” value is given as “+++ (Gcase activation greater than 60%)”.

For `Cc1cc(N2CC(C(C)C)OC2=O)nc2c(C(=O)N[C@@H](C3CC3)C(F)(F)F)cnn12` (stereo partly drawn) [III-318], the “Percent Gcase Activation, 0.1 μM Test Compound” value is “** (Gcase activation in the range of 10% up to 20%)” and the “Percent Gcase Activation, 1 μM Test Compound” value is given as “+++ (Gcase activation greater than 60%)”.

`Cc1cc(N2CC(C)(C)NC2=O)nc2c(C(=O)NC(C3CC3)C(F)(F)F)cnn12` (stereo not drawn) [III-319]: the “Percent Gcase Activation, 0.1 μM Test Compound” value is “** (Gcase activation in the range of 10% up to 20%)” and the “Percent Gcase Activation, 1 μM Test Compound” value was “+++ (Gcase activation greater than 60%)”.

As for `Cc1cc(N2CC(C(C)C)NC2=O)nc2c(C(=O)NC(C3CC3)C(F)(F)F)cnn12` (stereo not drawn) [III-320], the “Percent Gcase Activation, 0.1 μM Test Compound” value is “*** (greater than 20% Gcase activation)” and the “Percent Gcase Activation, 1 μM Test Compound” value was “+++ (Gcase activation greater than 60%)”.

As for `Cc1nc2cc(-c3cc(C)n4ncc(C(=O)N[C@@H](C)C5CC5)c4n3)ccc2o1` [III-321], the “Percent Gcase Activation, 0.1 μM Test Compound” value was “*** (greater than 20% Gcase activation)” and the “Percent Gcase Activation, 1 μM Test Compound” value is reported as “+++ (Gcase activation greater than 60%)”.

Regarding `Cc1cc(C2=CC(C)(C)CCO2)nc2c(C(=O)NC(C3CC3)C(F)(F)F)cnn12` (stereo not drawn) [III-322], the “Percent Gcase Activation, 0.1 μM Test Compound” value is given as “*** (greater than 20% Gcase activation)” and the “Percent Gcase Activation, 1 μM Test Compound” value is “+++ (Gcase activation greater than 60%)”.

On to `Cc1cc(C2CC(C)(C)CCO2)nc2c(C(=O)NC(C3CC3)C(F)(F)F)cnn12` (stereo not drawn) [III-323], for which the “Percent Gcase Activation, 0.1 μM Test Compound” value is given as “** (Gcase activation in the range of 10% up to 20%)” and the “Percent Gcase Activation, 1 μM Test Compound” value is recorded as “+++ (Gcase activation greater than 60%)”.

As for `Cc1cc(-c2cccnn2)nc2c(C(=O)NC(C3CC3)C(F)(F)F)cnn12` (stereo not drawn) [III-324], the “Percent Gcase Activation, 0.1 μM Test Compound” value is reported as “* (less than 10% Gcase activation)” and the “Percent Gcase Activation, 1 μM Test Compound” value is on record as “+ (less than 30% Gcase activation)”.

Consider `Cc1cc(-c2ccnnc2)nc2c(C(=O)NC(C3CC3)C(F)(F)F)cnn12` (stereo not drawn) [III-325], for which the “Percent Gcase Activation, 0.1 μM Test Compound” value is listed as “* (less than 10% Gcase activation)” and the “Percent Gcase Activation, 1 μM Test Compound” value is “+ (less than 30% Gcase activation)”.

As to `Cc1cc(N2CCN(C(C)C)C2=O)nc2c(C(=O)N[C@@H](C3CC3)C(F)(F)F)cnn12` [III-326], the “Percent Gcase Activation, 0.1 μM Test Compound” value was “* (less than 10% Gcase activation)” and the “Percent Gcase Activation, 1 μM Test Compound” value is recorded as “+++ (Gcase activation greater than 60%)”.

On to `Cc1cc(N2CCN(C(C)C)C2=O)nc2c(C(=O)N[C@H](C3CC3)C(F)(F)F)cnn12` [III-327], for which the “Percent Gcase Activation, 0.1 μM Test Compound” value is on record as “** (Gcase activation in the range of 10% up to 20%)” and the “Percent Gcase Activation, 1 μM Test Compound” value was “+++ (Gcase activation greater than 60%)”.

`Cc1cc(N2CCC(C)(C)C2=O)nc2c(C(=O)NC(C3CC3)C(F)(F)F)cnn12` (stereo not drawn) [III-328]: the “Percent Gcase Activation, 0.1 μM Test Compound” value was “** (Gcase activation in the range of 10% up to 20%)” and the “Percent Gcase Activation, 1 μM Test Compound” value is given as “+++ (Gcase activation greater than 60%)”.

As to `Cc1cc(N2CCN(c3ccccc3)C2=O)nc2c(C(=O)N[C@H](C)C(F)(F)F)cnn12` [III-329], the “Percent Gcase Activation, 0.1 μM Test Compound” value is “* (less than 10% Gcase activation)” and the “Percent Gcase Activation, 1 μM Test Compound” value is on record as “+ (less than 30% Gcase activation)”.

Turning to `Cc1cc(N2CCN(c3ccccc3)C2=O)nc2c(C(=O)N[C@H](C3CC3)C(F)(F)F)cnn12` [III-330], the “Percent Gcase Activation, 0.1 μM Test Compound” value is recorded as “** (Gcase activation in the range of 10% up to 20%)” and the “Percent Gcase Activation, 1 μM Test Compound” value was “++ (Gcase activation in the range of 30% up to 60%)”.

As for `Cc1nc(-c2cc(C)n3ncc(C(=O)N[C@H](C4CC4)C(F)(F)F)c3n2)oc1C` [III-331], the “Percent Gcase Activation, 0.1 μM Test Compound” value was “*** (greater than 20% Gcase activation)” and the “Percent Gcase Activation, 1 μM Test Compound” value was “+++ (Gcase activation greater than 60%)”.

Regarding `Cc1oc(C(C)C)nc1-c1cc(C)n2ncc(C(=O)N[C@H](C3CC3)C(F)(F)F)c2n1` [III-332], the “Percent Gcase Activation, 0.1 μM Test Compound” value is “*** (greater than 20% Gcase activation)” and the “Percent Gcase Activation, 1 μM Test Compound” value is listed as “+++ (Gcase activation greater than 60%)”.

As to `Cc1nc(-c2cc(C)n3ncc(C(=O)N[C@H](C4CC4)C(F)(F)F)c3n2)c(C)o1` [III-333], the “Percent Gcase Activation, 0.1 μM Test Compound” value was “*** (greater than 20% Gcase activation)” and the “Percent Gcase Activation, 1 μM Test Compound” value is listed as “+++ (Gcase activation greater than 60%)”.
